Experimental findings from patent publication US20200121652A1, “COMPOUNDS HAVING CASPASE INHIBITORY ACTIVITY, PHARMACEUTICAL AGENT CONTAINING SAID COMPOUNDS AND FOR TREATING OR PREVENTING CORNEAL ENDOTHELIAL SYMPTOMS, DISORDERS, OR DISEASES, AND APPLICATION OF SAID PHARMACEUTICAL AGENT” (The Doshisha, priority 2017, published 2020) are described below.

Structures are written as SMILES. Bounds are passed on as bounds.

Holding throughout (format): cell-based
For data set [1], the system named is Fuchs' endothelial corneal dystrophy patient derived immortalized human corneal endothelial cells. Nature of the data set: Cell Titer-Glo Luminescent Cell Viability Assay (Examples 4-5). Conditions: all concentrations of 0.0001, 0.0003, 0.001, 0.003, 0.01, 0.03, 0.1, 0.3, 1, and 3 μM. As for the experimental part:
(§1) The medium was removed from the culture dish in which Fuchs' endothelial corneal dystrophy patient derived immortalized human corneal endothelial cells were being cultured, and the cells were supplemented with 1× PBS (−) that was preheated to 37° C., and were washed. This was repeated twice. The cells were supplemented with 1× PBS (−) again and incubated for 5 minutes at 37° C. (5% CO2). After removing the PBS (−), the cells were supplemented with 0.05% Trypsin-EDTA (nacalai tesque, 32778-34) and incubated for 5 minutes at 37° C. (5% CO2). The cells were then suspended in a medium, and collected by centrifugation at 1500 rpm for 3 minutes. DMEM (nacalai tesque, 08456-36) +10% FBS (Sigma, 13H467)+1% P/S (nacalai tesque, 26252-94) was used as the medium.
Fuchs' endothelial corneal dystrophy patient derived immortalized human corneal endothelial cells (lot: iFECD3-5) were seeded on a 96-well plate at a ratio of 7×10^3 cells per well, and cultured at 37° C. (5% CO2) until reaching confluence. DMEM+10% FBS+1% P/S was used as the medium. […]
Cell viability was analyzed using Cell Titer-Glo Luminescent Cell Viability Assay by the following procedure.
The medium was discarded to achieve 50 μl per well. […] After being left still, 80 μl was transferred to Assay plate (Corning, 3912, Assay plate 96 well, white polystyrene) and […] was measured using GloMax-Multi Detection System (Promega, E7051). […]
In general terms: In ATP-based viability assays light output follows the ATP content of the culture.

The test system is the same in data set [2]. The data set can be described thus: Caspase-Glo 3/7 Assay after pretreatment and TGF-β2 stimulation (Examples 4-5). Conditions: for activity of Caspase 3/7: TGF-β2 10 ng/ml 24 h; for ratio of (caspase 3/7 activity)/(cell viability): agent concentration 0.0001 to 3 μM (FIG. 12). The protocol:
as §1
Fuchs' endothelial corneal dystrophy patient derived immortalized human corneal endothelial cells (lot: iFECD3-5) were seeded on a 96-well plate at a ratio of 7×10^3 cells per well, and cultured at 37° C. (5% CO2) until reaching confluence. DMEM+10% FBS+1% P/S was used as the medium.
(§2) After 24 hours, the medium was removed, fluticasone furoate (AXON MEDCHEM, 1172) was added so that the final concentration was each 0.0001, 0.0003, 0.001, 0.003, 0.01, 0.03, 0.1, 0.3, 1, and 3 μM, and the cells were cultured for 24 hours. DMEM+2% FBS+1% P/S was used as the medium.
After 24 hours, the medium was removed, 10 ng/ml Transforming Growth Factor-82 Human recombinant (WAKO, 200-19911) and fluticasone furoate were added so that the final concentration was each 0.0001, 0.0003, 0.001, 0.003, 0.01, 0.03, 0.1, 0.3, 1, and 3 μM, and the cells were cultured for 24 hours. DMEM+2% FBS+1% P/S was used as the medium.
After observation, measurement of caspase 3/7 activity by Caspase-Glo 3/7 Assay was carried out with the following procedure.
The medium was discarded to achieve 50 μl per well. 50 μl/well of CaspaseGlo 3/7 Assay Reagent (mixture of Caspase-Glo 3/7 Assay Buffer and Caspase-Glo 3/7 Assay Substrate) (Promega, G8091) solution was added so as to achieve 1:1 with the medium. The operations hereafter were carried out while being shaded. A shaker was used to mix the content well for 2 minutes at about 120 r/min to then be left still for 40 minutes at room temperature. After being left still, 80 μl was transferred to Assay plate (Corning, 3912, Assay plate 96 well, white polystyrene) and […] was measured using GloMax-Multi Detection System (Promega, E7051). Furthermore, 10 μM Z-VD-FMK (WAKO, 262-02061), which is a caspase inhibitor, was used as the positive control.
In this example, TGF-β inhibiting activity of fluticasone propionate (AXON MEDCHEM, 1404), which is one of SEGRAs, was tested. The test was conducted by the same procedure as Example 4.

Data set [3] has the same test system. Nature of the data set: Phase contrast microscope observation of cell damage after TGF-β2 stimulation (Examples 4-6). Conditions: then TGF-β2 10 ng/ml 24 h; for disorder in corneal endothelial cells (phase contrast microscope): pretreated 24 h. The protocol:
as §1
Fuchs' endothelial corneal dystrophy patient derived immortalized human corneal endothelial cells (lot: iFECD3-5) were seeded on a 12-well plate at a ratio of 5.0×10^4 cells per well, and cultured for 24 hours at 37° C. (5% CO2). DMEM+10% FBS+1% P/S was used as the medium.
as §2
After 24 hours, the medium was removed, fluticasone furoate was added together with 10 ng/ml Transforming Growth Factor-82 Human recombinant (WAKO, 200-19911) so that the final concentration was each 0.0001, 0.0003, 0.001, 0.003, 0.01, 0.03, 0.1, 0.3, 1, and 3 μM, and the cells were cultured for 24 hours. Medium: DMEM+2% FBS+1% P/S
After 24 hours, cell morphology and apoptosis were observed using a phase difference microscope.
In this example, TGF-β inhibiting activity of ZK216348 (AXON MEDCHEM, AXON2239), which is one of SEGRMs, was tested. The operation by a phase contrast microscope was carried out in the same manner as Example 4. 10 μM of ZK216348 was used as the final concentration.
After 24 hours, the medium was removed, ZK216348 was added together with 10 ng/ml Transforming Growth Factor-β2 Human recombinant (WAKO, 200-19911) so that the final concentration was […], and the cells were cultured for 24 hours. DMEM+2% FBS+1% P/S was used as the medium.

For data set [4], the system named is immortalized Fuchs' endothelial corneal dystrophy cells. Nature of the data set: Concentration-dependent caspase 3/7 activity under TGF-β2 stimulation (Example 3). Particulars: Homo sapiens, TGF-β2 10 ng/mL, 28 hours; for activity at 0.1 µM: agent 100 nM; for activity at 1 µM: agent 1 μM; for activity at 10 µM: agent 10 μM. The protocol:
7×10^3 immortalized Fuchs' endothelial corneal dystrophy cells were seeded on a 96-well plate and were cultured for 24 hours under the condition of 5% CO2 at 37° C.
After 28 hours under the condition of 5% CO2 at 37° C., cell morphology was observed using a phase difference microscope. Caspase 3/7 activity was then measured using Caspase-Glo 3/7 Assay (Promega, #G8091). DMEM+2% FBS+1% P/S was used as the medium. Caspase 3/7 activity and cell viability in this example were measured using GloMax-Multi Detection System (Promega, E7051).
Caspase 3/7 activity below 80% was used as a indicator indicating whether an agent can be used for treating or preventing a corneal endothelial condition, disorder, or disease, or whether an agent can be used as a caspase inhibitor (the underlines in FIG. 4A-1, FIG. 4A-2 and FIG. 4A-3, and FIG. 4B-1, FIG. 4B-2 and FIG. 4B-3).

Take `CCC(=O)O[C@]1(C(=O)SCF)[C@H](C)C[C@H]2[C@@H]3C[C@H](F)C4=CC(=O)C=C[C@]4(C)[C@@]3(F)[C@@H](O)C[C@@]21C` [fluticasone propionate]: in data set [1], the cell viability entry is listed as “no significant difference from the Control group”. In addition, the “activity of Caspase 3/7” value was “almost the same as those in the Control group” in data set [2] (0.01, 0.03, 0.1, 0.3, and 1 μM); “decreased” in data set [2] (in the order of 0.0001, 0.0003, 0.001, and 0.003 μM). The “ratio of (caspase 3/7 activity)/(cell viability)” value in data set [2] is given as “below 0.8”. The “disorder in corneal endothelial cells (phase contrast microscope)” value in data set [3] (0.0001, 0.0003, 1, and 3 μM) is recorded as “effect of suppressing a disorder in corneal endothelial cells was confirmed”; in data set [3] (0.001, 0.003, 0.01, 0.03, and 0.1 μM), “effectively suppressed”.

In the case of `Cc1noc(=O)c2ccc(NC(=O)C(O)(CC(C)(C)c3cccc4c3OCC4)C(F)(F)F)cc12` (single isomer, unassigned; (+)) [ZK216348, (+)-4-(2,3-dihydro-1-benzofuran-7-yl)-2-hydroxy-4-methyl-N-(4-methyl-1-oxo-2,3-benzoxazine-6-yl)-2-(trifluoromethyl)pentanamide], the “free cells and disorder in corneal endothelial cells (phase contrast microscope)” value in data set [3] (pretreated, final concentration 10 μM) is “free cells were decreased and a disorder in corneal endothelial cells was suppressed”.

Consider `CCC(=O)OCC(=O)[C@@]1(OC(=O)CC)[C@@H](C)C[C@H]2[C@@H]3CCC4=CC(=O)C=C[C@]4(C)[C@@]3(Cl)[C@@H](O)C[C@@]21C` [Beclomethasone Dipropionate], for which, in data set [4], the activity at 0.1 µM was not above 80%, the activity at 1 µM was not above 80% and the activity at 10 µM was not above 80%.

With `C[C@@H]1C[C@H]2[C@@H]3C[C@H](F)C4=CC(=O)C=C[C@]4(C)[C@@]3(F)[C@@H](O)C[C@]2(C)[C@@]1(OC(=O)c1ccco1)C(=O)SCF` [fluticasone furoate], in data set [1], the cell viability result is listed as “no significant difference from the Control group”. The “activity of Caspase 3/7” value is listed as “almost the same as those in the Control group” in data set [2] (0.003, 0.01, 0.03, 0.1, 0.3, 1, and 3 μM); “decreased” in data set [2] (in the order of 0.0001, 0.0003, and 0.001 μM). For the same compound, the “ratio of (caspase 3/7 activity)/(cell viability)” value in data set [2] was “below 0.8”. For the same compound, the “disorder in corneal endothelial cells (phase contrast microscope)” value is given as “effect of suppressing a disorder in corneal endothelial cells was confirmed” in data set [3] (0.0001 and 0.0003 μM); “effectively suppressed” in data set [3] (0.001, 0.003, 0.01, 0.03, 0.1, 0.3, 1, and 3 μM).

In data set [4], `C[C@]12C=CC(=O)C=C1CC[C@@H]1[C@@H]2[C@@H](O)C[C@@]2(C)[C@H]1CC[C@]2(O)C(=O)CO` [Prednisolone] yielded an activity at 0.1 µM not above 80%, an activity at 1 µM not above 80% and an activity at 10 µM not above 80%.

With `CC[C@@H]1/C=C(\C)C[C@H](C)C[C@H](OC)[C@H]2O[C@@](O)(C(=O)C(=O)N3CCCC[C@H]3C(=O)O[C@H](/C(C)=C/[C@@H]3CC[C@H](Cl)[C@H](OC)C3)[C@H](C)[C@@H](O)CC1=O)[C@H](C)C[C@@H]2OC` [Pimecrolimus], in data set [4] (agent 10 nM), the activity at 0.01 µM is not above 80%. In data set [4], this compound had an activity at 1 µM not above 80% and an activity at 10 µM not above 80%.
